Results as given in ChEMBL document CHEMBL1201862, “PubChem BioAssay data set” (2004).
Activity calls are given as the source filed them.

How the values were obtained:
[1] = inhibitors of firefly luciferase expression or activity, dose response, H4 neuroglioma cells, luminescence (AID 1990); assay type: functional, cell-based
[2] = test system: Streptococcus sp. 'group A'; assay: growth inhibition of control SK(-) GAS strain, dose response, counter-screen for streptokinase expression inhibitor project, luminescence, kanamycin, BacTiterGlo, confirmation (AID 1900); assay type: functional, organism-based
[3] = test system: BJ; assay: cytotoxicity toward BJ-TERT fibroblasts, dose response, cell-based, RAS-independent, luminescence (AID 1933); assay type: functional; details: Homo sapiens
[4] = cells; assay type: functional, cell-based
[5] = Luminescence Cell-Based Dose Response HTS to Identify Inhibitors of 5'UTR Stem-Loop Driven Prion Protein mRNA Translation in H4 Neuroglioblastoma Cells. [Related pubchem assays: 1827 (Project Summary), 1813 (Primary HTS)]; assay type: functional
[6] = inhibitors of SNCA 5'UTR-driven reporter translation, confirmation, H4 neuroglioma cells, luminescence (AID 1988); assay type: functional, cell-based
[7] = test system: BJ; assay: cells; assay type: functional, cell-based; details: Homo sapiens
[8] = cells; assay type: functional, cell-based; remark: listed apart in the source
[9] = target: T1, Kappa-type opioid receptor (Homo sapiens, UniProt P41145); assay type: functional
T1 sequence (P41145 whole entry): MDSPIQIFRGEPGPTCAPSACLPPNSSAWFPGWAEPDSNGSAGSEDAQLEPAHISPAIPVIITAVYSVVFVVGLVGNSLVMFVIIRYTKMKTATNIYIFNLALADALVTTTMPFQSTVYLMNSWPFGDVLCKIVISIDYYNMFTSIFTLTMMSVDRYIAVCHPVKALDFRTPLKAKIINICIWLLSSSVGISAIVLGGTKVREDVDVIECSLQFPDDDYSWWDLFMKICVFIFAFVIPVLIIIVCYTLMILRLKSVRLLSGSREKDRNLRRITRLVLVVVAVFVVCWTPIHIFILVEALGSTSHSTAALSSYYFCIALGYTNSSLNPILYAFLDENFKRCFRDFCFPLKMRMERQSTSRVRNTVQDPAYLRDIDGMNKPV

[10] = target: T2, Beta-galactosidase (Escherichia coli, UniProt Q8VNN2); assay type: functional
T2 sequence (Q8VNN2 whole entry): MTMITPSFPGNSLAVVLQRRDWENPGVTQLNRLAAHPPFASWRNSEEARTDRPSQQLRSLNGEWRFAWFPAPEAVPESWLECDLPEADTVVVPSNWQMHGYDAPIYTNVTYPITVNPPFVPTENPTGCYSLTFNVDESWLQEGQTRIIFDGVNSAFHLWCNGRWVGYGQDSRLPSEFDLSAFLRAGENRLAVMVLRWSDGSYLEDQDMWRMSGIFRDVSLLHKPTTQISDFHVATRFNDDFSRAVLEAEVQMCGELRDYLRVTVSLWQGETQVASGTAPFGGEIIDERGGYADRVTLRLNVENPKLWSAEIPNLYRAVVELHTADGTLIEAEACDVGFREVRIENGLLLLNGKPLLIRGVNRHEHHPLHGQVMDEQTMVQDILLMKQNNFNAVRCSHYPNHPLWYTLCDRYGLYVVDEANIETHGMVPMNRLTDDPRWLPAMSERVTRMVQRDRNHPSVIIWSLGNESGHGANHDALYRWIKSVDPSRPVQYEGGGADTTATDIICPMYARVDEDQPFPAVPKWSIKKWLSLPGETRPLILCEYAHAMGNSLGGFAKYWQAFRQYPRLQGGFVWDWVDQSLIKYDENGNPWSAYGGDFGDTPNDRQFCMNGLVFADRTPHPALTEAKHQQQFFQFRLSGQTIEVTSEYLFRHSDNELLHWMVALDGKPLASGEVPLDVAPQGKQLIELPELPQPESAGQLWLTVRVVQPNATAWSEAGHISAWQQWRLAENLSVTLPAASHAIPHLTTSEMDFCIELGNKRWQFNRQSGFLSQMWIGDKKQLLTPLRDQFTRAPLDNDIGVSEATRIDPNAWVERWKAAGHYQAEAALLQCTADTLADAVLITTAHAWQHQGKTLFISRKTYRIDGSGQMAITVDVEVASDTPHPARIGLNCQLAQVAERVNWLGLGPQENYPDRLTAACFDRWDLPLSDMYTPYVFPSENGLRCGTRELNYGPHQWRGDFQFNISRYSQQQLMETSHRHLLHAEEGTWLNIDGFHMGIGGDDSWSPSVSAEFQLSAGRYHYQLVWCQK

[11] = test system: BJ; assay: cytotoxicity toward BJ-TERT-LT-ST fibroblasts, dose response, cell-based, RAS-independent, luminescence (AID 1935); assay type: functional; details: Homo sapiens;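 note: BJ fibroblasts immortalized with TERT plus LT and ST oncogenes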
[12] = target: T1, Kappa-type opioid receptor; assay type: functional; remark: listed apart in the source
[13] = cytotoxicity toward DRD oncogenic fibroblasts, dose response, cell-based, non-viral oncogenic, luminescence (AID 1934); assay type: functional; details: Homo sapiens
[14] = test system: Streptococcus; assay: Group A Streptococcus viability loss, dose response, counter-screen for streptokinase expression inhibitor project, luminescence, BacTiterGlo (AID 1915); assay type: functional, organism-based;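 note: potency for reduction of bacterial viability or growth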
[15] = test system: Vero; assay: cells; assay type: functional, cell-based; details: Chlorocebus sabaeus
[16] = test system: BJ; assay: cytotoxicity toward Ras-transformed BJeLR fibroblasts, dose response, cell-based, alamar blue fluorescence, cherrypicked samples (AID 2631); assay type: functional; details: Homo sapiens;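 note: confirmatory dose-response assay in RAS-dependent BJ fibroblasts engineered with TERT, LT and ST, with cytotoxicity read by fluorescence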
[17] = test system: INS1; assay: beta cell apoptosis inhibitors, cytokine rescue, dose response, luminescence, retest (AID 449756); assay type: functional, cell-based; details: Rattus norvegicus;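 note: cell death triggered by IL-1 beta plus TNF-alpha plus IFN-gamma mixture; protective hits raise ATP signal compared with cytokine alone wells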
[18] = test system: Vero; assay: cells; assay type: functional; details: Chlorocebus sabaeus
[19] = target: T3, Streptokinase A (Streptococcus pyogenes serotype M1, UniProt P10520); assay: S. pyogenes streptokinase expression inhibitors, potency, dose response, plasminogen activation absorbance, OD405 (AID 1914); assay type: functional, Streptococcus pyogenes M1 GAS;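 note: secreted streptokinase activity via plasminogen activation per viability signal from cell pellet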
T3 sequence (P10520 whole entry): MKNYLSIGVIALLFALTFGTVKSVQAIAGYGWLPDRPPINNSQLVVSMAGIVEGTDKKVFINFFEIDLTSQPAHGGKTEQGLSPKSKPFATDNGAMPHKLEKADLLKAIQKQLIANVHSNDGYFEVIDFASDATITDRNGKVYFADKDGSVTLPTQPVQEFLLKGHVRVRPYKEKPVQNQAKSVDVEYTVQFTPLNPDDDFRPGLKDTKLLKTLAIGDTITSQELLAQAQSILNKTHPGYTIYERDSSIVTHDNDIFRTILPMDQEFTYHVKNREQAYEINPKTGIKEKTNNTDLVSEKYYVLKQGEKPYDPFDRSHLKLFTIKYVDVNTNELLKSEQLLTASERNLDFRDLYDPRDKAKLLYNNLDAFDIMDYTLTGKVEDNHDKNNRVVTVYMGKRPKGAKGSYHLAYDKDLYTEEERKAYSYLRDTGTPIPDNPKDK

[20] = target: Tumor necrosis factor (Homo sapiens, UniProt P01375); assay: TNFa-triggered NF-kB activation inhibitors, SAR follow-up, cell-based, revised (AID 2337); assay type: functional
Tumor necrosis factor, sequence (P01375 whole entry, the tested form may be a part): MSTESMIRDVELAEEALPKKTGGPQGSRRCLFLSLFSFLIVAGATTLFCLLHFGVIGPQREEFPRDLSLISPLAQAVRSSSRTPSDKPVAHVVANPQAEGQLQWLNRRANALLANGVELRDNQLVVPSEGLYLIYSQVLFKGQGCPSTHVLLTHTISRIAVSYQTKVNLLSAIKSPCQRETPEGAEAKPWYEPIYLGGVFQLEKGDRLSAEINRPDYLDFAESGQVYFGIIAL

[21] = target: T4, Nucleotide-binding oligomerization domain-containing protein 1 (Homo sapiens, UniProt Q9Y239); assay: NOD1 signaling inhibitors, SAR follow-up, revised (AID 2333); assay type: functional
T4 sequence (Q9Y239 whole entry): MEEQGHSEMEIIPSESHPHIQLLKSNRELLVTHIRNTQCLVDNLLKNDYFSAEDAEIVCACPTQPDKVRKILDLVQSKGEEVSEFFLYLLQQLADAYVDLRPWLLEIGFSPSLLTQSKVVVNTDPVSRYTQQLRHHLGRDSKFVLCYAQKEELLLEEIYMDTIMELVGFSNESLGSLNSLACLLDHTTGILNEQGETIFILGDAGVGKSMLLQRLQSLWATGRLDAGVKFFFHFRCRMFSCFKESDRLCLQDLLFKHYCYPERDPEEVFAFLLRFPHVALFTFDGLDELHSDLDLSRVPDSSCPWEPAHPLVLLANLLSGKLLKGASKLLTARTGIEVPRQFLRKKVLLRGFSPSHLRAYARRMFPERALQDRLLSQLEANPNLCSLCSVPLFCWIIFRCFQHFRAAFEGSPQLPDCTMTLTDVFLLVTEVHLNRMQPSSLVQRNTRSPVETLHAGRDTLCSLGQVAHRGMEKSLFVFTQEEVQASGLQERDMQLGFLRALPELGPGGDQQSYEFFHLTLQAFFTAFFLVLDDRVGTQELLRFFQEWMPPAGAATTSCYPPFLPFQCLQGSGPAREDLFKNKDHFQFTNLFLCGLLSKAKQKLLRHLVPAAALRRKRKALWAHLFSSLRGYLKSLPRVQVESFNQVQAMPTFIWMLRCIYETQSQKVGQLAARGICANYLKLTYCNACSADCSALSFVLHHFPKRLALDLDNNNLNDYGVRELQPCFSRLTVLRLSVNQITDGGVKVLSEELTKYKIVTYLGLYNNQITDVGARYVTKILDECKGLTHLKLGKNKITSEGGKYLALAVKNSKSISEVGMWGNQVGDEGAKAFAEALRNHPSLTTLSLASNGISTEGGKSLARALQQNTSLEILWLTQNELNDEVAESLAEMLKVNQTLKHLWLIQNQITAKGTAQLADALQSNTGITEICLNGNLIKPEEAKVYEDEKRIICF

[22] = target: Nucleotide-binding oligomerization domain-containing protein 2 (Homo sapiens, UniProt Q9HC29); assay: PubChem AID 2334; assay type: functional
Nucleotide-binding oligomerization domain-containing protein 2, sequence (Q9HC29 whole entry, the tested form may be a part): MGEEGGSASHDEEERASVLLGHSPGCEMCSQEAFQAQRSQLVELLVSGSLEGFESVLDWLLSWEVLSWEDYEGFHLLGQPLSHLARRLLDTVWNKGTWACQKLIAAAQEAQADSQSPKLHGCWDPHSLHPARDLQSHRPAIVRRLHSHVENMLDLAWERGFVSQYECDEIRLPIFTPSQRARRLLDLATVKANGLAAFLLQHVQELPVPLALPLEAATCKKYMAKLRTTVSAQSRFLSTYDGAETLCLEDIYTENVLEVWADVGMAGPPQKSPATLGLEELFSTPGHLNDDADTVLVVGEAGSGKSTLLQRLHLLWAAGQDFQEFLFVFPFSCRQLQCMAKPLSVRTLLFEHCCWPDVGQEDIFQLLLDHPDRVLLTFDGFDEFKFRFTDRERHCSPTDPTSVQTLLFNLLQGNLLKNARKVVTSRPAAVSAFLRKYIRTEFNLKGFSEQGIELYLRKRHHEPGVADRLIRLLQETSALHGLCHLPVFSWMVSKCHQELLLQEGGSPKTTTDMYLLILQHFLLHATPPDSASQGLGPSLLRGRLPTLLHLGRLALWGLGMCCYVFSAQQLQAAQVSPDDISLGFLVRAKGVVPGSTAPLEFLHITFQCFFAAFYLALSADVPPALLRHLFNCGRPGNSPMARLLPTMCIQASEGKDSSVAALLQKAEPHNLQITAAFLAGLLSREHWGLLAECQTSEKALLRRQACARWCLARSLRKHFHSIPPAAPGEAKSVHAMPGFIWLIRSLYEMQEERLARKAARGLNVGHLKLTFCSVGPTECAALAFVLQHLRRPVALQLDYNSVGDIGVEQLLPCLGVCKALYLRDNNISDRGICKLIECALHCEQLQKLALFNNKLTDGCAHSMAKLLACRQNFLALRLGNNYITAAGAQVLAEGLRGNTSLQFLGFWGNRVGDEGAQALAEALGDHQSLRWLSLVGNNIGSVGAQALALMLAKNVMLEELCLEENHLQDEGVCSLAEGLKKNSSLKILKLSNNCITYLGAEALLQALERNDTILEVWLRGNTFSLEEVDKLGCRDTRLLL

[23] = target: Genome polyprotein (dengue virus type 2, UniProt P29990); assay: Dengue-2 NS5 methyltransferase inhibitors, primary screen, biochemical, confirmation dose response (AID 588689); assay type: functional
Genome polyprotein, sequence (P29990 2492-3391 limits assumed): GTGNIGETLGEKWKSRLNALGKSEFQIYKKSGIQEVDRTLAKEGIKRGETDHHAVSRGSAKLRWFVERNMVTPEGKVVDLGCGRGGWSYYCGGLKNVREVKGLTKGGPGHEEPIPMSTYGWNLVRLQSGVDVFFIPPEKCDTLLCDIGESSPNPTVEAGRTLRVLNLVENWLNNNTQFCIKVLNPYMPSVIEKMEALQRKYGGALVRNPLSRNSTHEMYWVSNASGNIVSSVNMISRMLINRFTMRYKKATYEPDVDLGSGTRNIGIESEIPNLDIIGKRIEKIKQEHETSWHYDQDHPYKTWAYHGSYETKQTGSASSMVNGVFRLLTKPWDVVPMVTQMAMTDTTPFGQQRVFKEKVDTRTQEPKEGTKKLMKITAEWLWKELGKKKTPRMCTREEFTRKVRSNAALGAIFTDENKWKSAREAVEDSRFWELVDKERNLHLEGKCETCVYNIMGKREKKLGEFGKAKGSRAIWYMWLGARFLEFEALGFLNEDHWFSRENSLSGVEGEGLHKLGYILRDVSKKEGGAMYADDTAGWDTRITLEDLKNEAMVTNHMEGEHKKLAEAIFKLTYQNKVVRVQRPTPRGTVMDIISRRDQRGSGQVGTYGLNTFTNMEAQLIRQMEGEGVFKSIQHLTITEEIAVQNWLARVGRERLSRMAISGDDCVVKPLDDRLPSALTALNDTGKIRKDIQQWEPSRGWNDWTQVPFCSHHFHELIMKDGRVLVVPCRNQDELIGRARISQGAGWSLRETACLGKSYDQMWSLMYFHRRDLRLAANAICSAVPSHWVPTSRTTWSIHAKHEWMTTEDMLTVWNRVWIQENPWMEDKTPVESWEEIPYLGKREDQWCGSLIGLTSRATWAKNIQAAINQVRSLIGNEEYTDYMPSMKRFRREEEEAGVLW

[24] = HEp-2 cell cytotoxicity, dose response, cytotoxicity control for RSV inhibitor project, HTS (AID 2410); assay type: functional; details: human respiratory syncytial virus
[25] = target: CAAX prenyl protease 2 (Saccharomyces cerevisiae S288c, UniProt Q03530); assay type: biochemical
CAAX prenyl protease 2 (Saccharomyces cerevisiae S288c, UniProt Q03530), sequence (Q03530 whole entry): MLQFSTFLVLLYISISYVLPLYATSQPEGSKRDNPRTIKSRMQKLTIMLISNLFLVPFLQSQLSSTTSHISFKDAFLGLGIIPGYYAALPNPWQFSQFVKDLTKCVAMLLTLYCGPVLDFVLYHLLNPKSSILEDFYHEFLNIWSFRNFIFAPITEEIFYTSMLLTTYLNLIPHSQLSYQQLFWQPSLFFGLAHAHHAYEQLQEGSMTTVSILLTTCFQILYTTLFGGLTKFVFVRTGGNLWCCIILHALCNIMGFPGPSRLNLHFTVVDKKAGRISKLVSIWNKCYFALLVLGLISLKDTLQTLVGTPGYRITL

[26] = target: T5, CAAX prenyl protease 2 (Homo sapiens, UniProt Q9Y256); assay: human Rce1 protease inhibitors, dose response, biochemical, yeast membranes, quenched-peptide fluorescence, cherry-pick (AID 588849)
T5 sequence (Q9Y256 whole entry): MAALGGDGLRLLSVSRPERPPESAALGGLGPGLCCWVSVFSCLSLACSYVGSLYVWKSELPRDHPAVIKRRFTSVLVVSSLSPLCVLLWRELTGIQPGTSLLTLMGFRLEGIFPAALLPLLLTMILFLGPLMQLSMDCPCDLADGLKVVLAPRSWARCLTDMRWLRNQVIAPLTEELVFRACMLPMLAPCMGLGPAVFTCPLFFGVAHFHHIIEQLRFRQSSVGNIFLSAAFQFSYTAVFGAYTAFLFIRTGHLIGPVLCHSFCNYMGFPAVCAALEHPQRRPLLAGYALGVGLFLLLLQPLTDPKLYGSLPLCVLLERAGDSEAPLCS

[27] = target: Disintegrin and metalloproteinase domain-containing protein 17 (Homo sapiens, UniProt P78536); assay: exosite inhibitors of ADAM17, dose response, biochemical (AID 743260)
[28] = ADAM10 protease inhibitors, dose response, selectivity assay for ADAM17 exosite inhibitor project, biochemical, FRET peptide substrate, recombinant human ADAM10 (AID 743259);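 note: ADAM10 enzyme cleaving a FRET peptide substrate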
[29] = target: T2, Beta-galactosidase; assay: beta-galactosidase enzyme inhibitors and activators, dose response, artefact control for CCR6 antagonist project, biochemical, E. coli enzyme, set 3 (AID 504712); assay type: functional
[30] = target: Melanocortin receptor 4 (Homo sapiens, UniProt P32245); assay: MC4R antagonist potency on cAMP, dose response, cell-based, TR-FRET, biased antagonists (AID 602298); assay type: functional;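 note: antagonist potency against agonist-stimulated cAMP production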
Melanocortin receptor 4, sequence (P32245 whole entry): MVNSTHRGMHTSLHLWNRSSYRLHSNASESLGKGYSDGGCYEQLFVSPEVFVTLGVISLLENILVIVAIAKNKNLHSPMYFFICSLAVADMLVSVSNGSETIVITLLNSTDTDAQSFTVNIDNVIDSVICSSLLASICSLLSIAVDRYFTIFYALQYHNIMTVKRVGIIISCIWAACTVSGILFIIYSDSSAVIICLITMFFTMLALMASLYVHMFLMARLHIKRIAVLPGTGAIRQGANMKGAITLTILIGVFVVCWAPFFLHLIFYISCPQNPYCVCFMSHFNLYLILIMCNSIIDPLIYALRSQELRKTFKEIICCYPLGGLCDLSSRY

[31] = Shn3 3'UTR reporter inhibitors, dose response, cell-based, Clone20 osteoblasts, firefly luciferase, cherry-picked (AID 624132); assay type: functional;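 note: firefly luciferase luminescence from reporter carrying the Shn3 3'UTR in osteoblasts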
[32] = HepG2 cell cytotoxicity, dose response, cytotoxicity control for Shn3 inhibitor project, CellTiter-Glo, cherry-picked (AID 624134); assay type: functional, cell-based
[33] = control 3'UTR Renilla luciferase suppression, dose response, counter-screen for Shn3 inhibitor project, cell-based, Clone20-Shn3RL, cherry-picked (AID 624133); assay type: functional
[34] = nonselective inhibitors of cellular cAMP signaling, dose response, counter-screen for MC4R biased antagonist project, cell-based, TR-FRET cAMP detection (AID 602305); assay type: functional;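 note: U2OS cells stimulated with forskolin near its EC80 as the cAMP inducer; potency is for inhibition of forskolin-stimulated cAMP signaling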
[35] = target: Photoreceptor-specific nuclear receptor (Homo sapiens, UniProt Q9Y5X4); assay type: functional, cell-based;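 note: CHO-S cells with Gal4-NCOR and VP16-NR2E3 two-hybrid luciferase reporter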
[36] = inhibitors of PGC1a acetylation in cells, dose response, cell-based, cherry-picked samples (AID 720514); assay type: functional;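 note: potency may reflect raised or lowered acetylation signal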
[37] = target: Scavenger receptor class B member 1 (Mus musculus, UniProt Q61009); assay: inhibitors of SR-BI mediated HDL lipid uptake, dose response, ldlA[mSR-BI] cells, fluorescence, cherry pick (AID 493194); assay type: functional, cell-based;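 note: cellular uptake of fluorescent DiI-labeled HDL measured as cell fluorescence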
Scavenger receptor class B member 1, sequence (Q61009 whole entry): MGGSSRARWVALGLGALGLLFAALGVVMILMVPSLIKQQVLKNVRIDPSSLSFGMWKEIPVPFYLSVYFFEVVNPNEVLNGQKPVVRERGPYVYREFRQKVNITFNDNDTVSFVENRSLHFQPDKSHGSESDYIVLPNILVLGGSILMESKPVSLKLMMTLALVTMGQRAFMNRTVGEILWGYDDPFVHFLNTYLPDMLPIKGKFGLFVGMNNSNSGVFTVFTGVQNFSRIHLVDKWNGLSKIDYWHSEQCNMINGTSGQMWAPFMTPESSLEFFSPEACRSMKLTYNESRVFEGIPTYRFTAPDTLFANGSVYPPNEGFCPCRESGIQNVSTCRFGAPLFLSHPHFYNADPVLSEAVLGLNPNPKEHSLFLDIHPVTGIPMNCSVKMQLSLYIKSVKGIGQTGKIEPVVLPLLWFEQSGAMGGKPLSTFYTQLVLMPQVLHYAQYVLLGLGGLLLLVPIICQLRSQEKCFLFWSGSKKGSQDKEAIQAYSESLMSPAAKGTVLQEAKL

Cc1ccccc1N=Nc1ccc(O)c2ncccc12
EC50 [1]: 5.81 µM (active) | EC50 [2]: < 0.06 µM (active) | EC50 [3]: 10.4 µM (inconclusive) | EC50 [4]: 7.93 µM (active) | EC50 [5]: 2.89 µM (active) | EC50 [6]: 2.03 µM (active) | EC50 [7]: 15.1 µM (inconclusive) | EC50 [8]: 46.8 µM (active) | IC50 [9]: 4.11 µM (active) | EC50 [10]: 30.1 µM (active) | EC50 [11]: 6.64 µM (inconclusive) | IC50 [12]: > 32 µM | EC50 [13]: 12.7 µM (active) | EC50 [14]: 0.437 µM (active) | IC50 [15]: > 25 µM (active) | EC50 [16]: 0.677 µM (active) | AC50 [17]: 1.65 µM (active) | CC50 [18]: 5.63 µM (active)

N#Cc1c(-c2ccccc2)nc(SCc2cccc(C(F)(F)F)c2)[nH]c1=O
EC50 [19]: 6.34 µM (active) | IC50 [20]: 8.05 µM (active) | IC50 [21]: 6.48 µM (active) | IC50 [22]: 7.5 µM (active) | IC50 [23]: 42.7 µM (active)

CCO[C@H]1OC(C(=O)Nc2ccccc2)=C[C@@H](c2csc3ccccc23)[C@@H]1CCCO
CC50 [24]: 18.7 µM (active) | AC50 [25]: 17.5 µM (active) | AC50 [26]: 0.183 µM (active) | IC50 [27]: > 69.5 µM (inactive) | IC50 [28]: 11.2 µM (inactive)

O=S(=O)(/C(=C\c1ccc(C(F)(F)F)cc1)c1nc2ccccc2[nH]1)c1ccccc1
IC50 [29]: > 66.6 µM (inactive) | IC50 [30]: 9.39 µM (active) | AC50 [31]: 1.85 µM (active) | AC50 [32]: 6.49 µM (active) | AC50 [33]: < 0.5 µM (active) | IC50 [34]: > 64.6 µM (inactive) | IC50 [35]: 4.42 µM (active) | AC50 [36]: 3.11 µM (active)

CCn1c(COc2c(C)cccc2C)nnc1SCC(=O)N1CCN(c2ccccc2)CC1
AC50 [37]: 23 µM (active)
